Data on one molecule can be found in patent US11319551B2, “Methods and compositions for PPO herbicide tolerance in plants” (Monsanto Technology LLC, priority 2015, dated 2022).

The target of test [1] is soybean PPO. Description: PPO enzyme assay, plant plastid extract. The conditions noted are these: 3 μM protogen, 30° C., read-out: S-3100 IC50. It is filed as biochemical, Glycine max. The protocol: (§1) Plant plastid extract was produced used etioplasts and chloroplasts that were prepared from etiolated cotyledons (soybean, Glycine max), etiolated leaves/coleoptiles (corn, Zea mays) and unfolded apical leaves (A. tuberculatus) generally by the procedure described by Grossmann (2010). Soybean (A3555) and corn (LH244) seeds were placed between two sheets of moist germination paper (Anchor Paper Company, Saint Paul, Minn.) in a beaker of water in continuous darkness for eight to ten days. A. tuberculatus plants were grown for 30 days in the greenhouse. Tissue was collected, placed between moist sheets of paper towels and ground to fine powder with a mortar and pestle in liquid nitrogen. Homogenization buffer (50 mM Tris-HCl, pH 7.4, 500 mM sucrose, 1 mM EDTA, 1 mM magnesium chloride, and 2 g/liter bovine serum albumin) was added to the frozen powder at 4:1 (ml homogenization buffer to g fresh weight tissue), mixed vigorously and filtered through four layers of pre-moistened Miracloth. The filtrate was centrifuged at 9299 g for five minutes. The pellet was resuspended in homogenization buffer and centrifuged at 150 g for two minutes. The supernatant solution was centrifuged at 4000 g for fifteen minutes. All centrifugation steps were carried out a 4° C. […]

Test [2] concerns the target corn PPO. The experiment in a line: PPO enzyme assay, plant plastid extract. In kind it is biochemical, Zea mays. The conditions noted are these: 3 μM protogen, 30° C., read-out: S-3100 IC50. The protocol: as §1
Test [3] deals with E. coli HemG (Escherichia coli, UniProt P0ACB4). The experiment in a line: PPO enzyme assay, bacterial extract.
Experimental: (§2) This assay used recombinant HemY PPO proteins with plant plastid extract and PPO substrate to identify protoporphyrinogen oxidases that had activity in the presence of a PPO herbicide.
(§3) Recombinant PPO enzymes were expressed in E. coli HemG knockout cell line and extracted for the enzyme assay. Bacterial cells from an overnight culture were used to inoculate 20 ml of fresh media. These cultures were allowed to grow for approximately 48 hrs at 20° C. to a dense culture. Bacterial cells were collected by centrifugation and the cell pellets stored at −80° C. until enzyme assays were performed. Frozen bacterial pellets were resuspended in extraction buffer (50 mM Tris-HCl, pH 7.6, 1 mM EDTA & 1 mM MgCl2) and sonicated (Sonics VibraCell™) for 30 seconds in an ice bath with a one-minute rest period between cycles. For E. coli transformed with a construct encoding E. coli HemG (SEQ ID NO: 76) the broken cells were centrifuged at 200 g for 2 minutes at 4° C. and the supernatant solution was used for PPO enzyme assays after dilution with extraction buffer. […]
(§4) A PPO enzyme assay was conducted to measure PPO activity using the plant plastid extract and bacterial extract preparations with the PPO substrate. PPO activity was measured generally as described by Grossmann (2010).
Test [4] concerns R2N30. Description: PPO enzyme assay, bacterial extract.
Experimental: as §2, §3, §4
For test [5], the system named is R2N40. The experiment in a line: PPO enzyme assay, bacterial extract.
Experimental: as §2, §3, §4
[6] abbreviates: read-out: S-3100 IC50, bacterial extract, 3 μM protogen, 37° C.

Sequence of E. coli HemG (P0ACB4 whole entry): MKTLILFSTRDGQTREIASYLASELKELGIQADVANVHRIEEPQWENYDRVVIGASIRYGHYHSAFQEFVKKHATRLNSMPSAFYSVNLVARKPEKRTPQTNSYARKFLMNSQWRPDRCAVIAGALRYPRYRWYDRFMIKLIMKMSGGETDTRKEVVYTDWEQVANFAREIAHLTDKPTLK

In the case of `CCOC(=O)COc1ncccc1Oc1cc(-n2c(=O)cc(C(F)(F)F)n(C)c2=O)c(F)cc1Cl` [S-3100], the IC50 is 4 nM in test [1]; 3 nM in test [2]; greater than 100 µM in test [3]; 20 nM in test [4] (setting [6]); 40 nM in test [5] (setting [6]). The “less sensitive to the herbicide than the plant PPO enzymes” value in test [4] (R2N30 versus plant PPO enzymes) and in test [5] (R2N40 versus plant PPO enzymes) was 10 fold each time.

As a reminder, the IC50 is the concentration that gives 50% inhibition.
